Test results as given in ChEMBL document CHEMBL6121046, “Discovery of Novel Hydrazide-Based HDAC3 Inhibitors as Epigenetic Immunomodulators for Cancer Immunotherapy” (J Med Chem, 2025).
Active and inactive are the calls of the source. No cut-off for these calls is given here.

How the values were obtained:
[1] = molecular target: Histone deacetylase 1 (Homo sapiens, UniProt Q13547); assay: Inhibition of human recombinant HDAC1 pre-incubated with compounds for 10 mins measured followed by 60 mins of substrate addition
Histone deacetylase 1, sequence (Q13547 whole entry): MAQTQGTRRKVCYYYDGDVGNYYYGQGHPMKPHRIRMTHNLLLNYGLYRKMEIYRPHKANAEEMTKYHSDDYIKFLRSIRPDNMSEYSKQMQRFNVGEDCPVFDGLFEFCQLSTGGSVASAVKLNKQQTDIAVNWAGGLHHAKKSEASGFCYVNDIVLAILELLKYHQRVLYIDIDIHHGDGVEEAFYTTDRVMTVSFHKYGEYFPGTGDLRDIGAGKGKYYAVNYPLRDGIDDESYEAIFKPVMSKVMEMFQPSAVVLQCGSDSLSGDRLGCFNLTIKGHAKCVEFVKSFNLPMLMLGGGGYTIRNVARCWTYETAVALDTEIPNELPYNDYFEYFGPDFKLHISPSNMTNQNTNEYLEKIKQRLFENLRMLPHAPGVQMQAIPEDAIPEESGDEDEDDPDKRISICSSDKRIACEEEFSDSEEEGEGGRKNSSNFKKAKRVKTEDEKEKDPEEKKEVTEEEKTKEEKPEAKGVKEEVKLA

[2] = molecular target: Histone deacetylase 3 (Homo sapiens, UniProt O15379); assay: Inhibition of human recombinant HDAC3 pre-incubated with compounds for 10 mins measured followed by 60 mins of substrate addition
Histone deacetylase 3, sequence (O15379 whole entry): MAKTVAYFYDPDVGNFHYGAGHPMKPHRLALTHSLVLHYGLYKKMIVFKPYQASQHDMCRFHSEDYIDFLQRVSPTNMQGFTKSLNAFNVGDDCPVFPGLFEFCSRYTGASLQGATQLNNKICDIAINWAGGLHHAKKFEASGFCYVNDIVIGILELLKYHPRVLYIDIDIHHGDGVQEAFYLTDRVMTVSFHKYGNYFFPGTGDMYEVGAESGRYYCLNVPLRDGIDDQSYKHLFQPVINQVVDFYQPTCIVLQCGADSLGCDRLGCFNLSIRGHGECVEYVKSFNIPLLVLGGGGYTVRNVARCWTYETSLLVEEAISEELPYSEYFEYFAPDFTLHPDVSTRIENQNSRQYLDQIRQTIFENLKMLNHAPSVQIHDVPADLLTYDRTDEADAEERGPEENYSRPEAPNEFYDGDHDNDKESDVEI

[3] = molecular target: T1, Histone deacetylase 8 (Homo sapiens, UniProt Q9BY41); assay: Inhibition of human recombinant HDAC8 pre-incubated with compounds for 10 mins measured followed by 60 mins of substrate addition
T1 sequence (Q9BY41 whole entry): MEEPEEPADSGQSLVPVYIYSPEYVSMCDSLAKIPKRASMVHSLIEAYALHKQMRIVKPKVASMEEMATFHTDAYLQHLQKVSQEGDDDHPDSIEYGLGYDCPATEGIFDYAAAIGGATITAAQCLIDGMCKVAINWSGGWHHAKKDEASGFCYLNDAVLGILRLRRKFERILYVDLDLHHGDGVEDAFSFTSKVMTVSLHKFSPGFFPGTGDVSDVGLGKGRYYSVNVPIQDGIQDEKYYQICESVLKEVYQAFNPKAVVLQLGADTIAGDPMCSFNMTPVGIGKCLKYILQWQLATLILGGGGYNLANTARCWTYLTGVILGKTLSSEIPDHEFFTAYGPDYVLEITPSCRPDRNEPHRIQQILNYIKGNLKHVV

[4] = test system: HepG2; assay: Antiproliferative activity against human HepG2 cells measured after 48 hrs incubation by MTT assay relative to control; assay type: functional, cell-based; conditions: HepG2, 48 h
[5] = test system: MCF7; assay: Antiproliferative activity against human MCF7 cells measured after 48 hrs incubation by MTT assay relative to control; assay type: functional, cell-based; conditions: MCF7, 48 h
[6] = test system: MC-38; assay: Antiproliferative activity against mouse MC38 cells measured after 48 hrs incubation by MTT assay relative to control; assay type: functional, cell-based; conditions: MC-38, 48 h
[7] = test system: HCT-116; assay: Antiproliferative activity against human HCT-116 cells measured after 48 hrs incubation by MTT assay relative to control; assay type: functional, cell-based; conditions: HCT-116, 48 h
[8] = test system: MC-38; assay: Induction of apoptosis in mouse MC38 cells assessed as early apoptotic cells at 1 uM measured after 48 hrs by FITC/PI staining based flow cytometry (Rvb =12.27%); assay type: functional
[9] = test system: MC-38; assay: Induction of apoptosis in mouse MC38 cells assessed as late apoptotic cells at 1 uM measured after 48 hrs by FITC/PI staining based flow cytometry (reference value: 5.07%); assay type: functional
[10] = test system: MC-38; assay: Induction of apoptosis in mouse MC38 cells assessed as viable cells at 2 uM measured after 48 hrs by FITC/PI staining based flow cytometry (reference value: 82.07%); assay type: functional; conditions: read-out: Activity
[11] = test system: MC-38; assay: Induction of apoptosis in mouse MC38 cells assessed as late apoptotic cells at 2 uM measured after 48 hrs by FITC/PI staining based flow cytometry (reference value: 5.07%); assay type: functional
[12] = test system: MC-38; assay: Induction of apoptosis in mouse MC38 cells assessed as viable cells at 4 uM measured after 48 hrs by FITC/PI staining based flow cytometry (reference value: 82.07%); assay type: functional; conditions: read-out: Activity
[13] = test system: MC-38; assay: Induction of apoptosis in mouse MC38 cells assessed as necrotic cells at 4 uM measured after 48 hrs by FITC/PI staining based flow cytometry (reference value: 0.56%); assay type: functional
[14] = test system: MC-38; assay: Induction of apoptosis in mouse MC38 cells assessed as late apoptotic cells at 8 uM measured after 48 hrs by FITC/PI staining based flow cytometry (reference value: 5.07%); assay type: functional
[15] = test system: MC-38; assay: Induction of apoptosis in mouse MC38 cells assessed as necrotic cells at 8 uM measured after 48 hrs by FITC/PI staining based flow cytometry (reference value: 0.56%); assay type: functional
[16] = test system: MC-38; assay: Cell cycle arrest in mouse MC38 cells assessed as increase in accumulation of cells at G2/M phase measured after 48 hrs by flow cytometry; assay type: functional, cell-based; conditions: dose 1-8 µM
[17] = test system: MC-38; assay: Cell cycle arrest in mouse MC38 cells assessed as decrease in accumulation of cells at G0/G1 phase measured after 48 hrs by flow cytometry; assay type: functional, cell-based; conditions: dose 1-8 µM
[18] = test system: MC-38; assay: Induction of ROS production in mouse MC38 cells assessed as increase in intracellular ROS level measured after 48 hrs by DCFH-DA/Brightfield - fluorescence imaging analysis; assay type: functional, cell-based
[19] = test system: MC-38; assay: Induction of mitochondrial membrane damage in mouse MC38 cells assessed as decrease in JC-1 aggregation by measuring red fluorescence at 2 uM measured after 48 hrs (reference value: 96.70%); assay type: functional; parameters: scale not given: the % may be the effect or the level left
[20] = test system: MC-38; assay: Induction of mitochondrial membrane damage in mouse MC38 cells assessed as increase in JC-1 monomers by measuring green fluorescence at 4 uM measured after 48 hrs (reference value: 3.13%); assay type: functional
[21] = test system: MC-38; assay: Increase in acetylated H3 in mouse MC38 cells at 0.1 to 2 uM measured after 24 hrs incubation by Western blot analysis; assay type: functional, cell-based; conditions: dose 0.1-2 µM
[22] = test system: MC-38; assay: Effect on acetylated SMC3 in mouse MC38 cells at 0.1 to 2 uM measured after 24 hrs incubation by Western blot analysis; assay type: functional, cell-based; conditions: dose 0.1-2 µM
[23] = test system: MC-38; assay: Induction of PD-L1 expression in mouse MC38 cells measured after 24 hrs incubation by Western blot analysis; assay type: functional, cell-based; conditions: dose 1-4 µM
[24] = Tmax in Sprague-Dawley rat at 20 mg/kg, iv measured upto 12 hrs by LC-MS/MS analysis; assay type: ADME, organism-based; conditions: in vivo
[25] = Cmax in Sprague-Dawley rat at 20 mg/kg, iv measured upto 12 hrs by LC-MS/MS analysis; assay type: ADME, organism-based; conditions: in vivo
[26] = MRT (0 to t) in Sprague-Dawley rat at 20 mg/kg, po measured upto 12 hrs by LC-MS/MS analysis; assay type: ADME, organism-based; conditions: in vivo
[27] = Cmax in Sprague-Dawley rat at 20 mg/kg, po measured upto 12 hrs by LC-MS/MS analysis; assay type: ADME, organism-based; conditions: in vivo
[28] = test system: Mus musculus; assay: Immunomodulatory effect in C57BL/6 mouse allografted mouse MC38 cells assessed as increase in tumor infiltrating lymphocytes by measuring increase in […] in mouse lymph nodes in presence of NP19 PD-L1 inhibitor at 50 mg/kg, po treated 5 days after cell inoculation 19 th day by flow cytometry analysis (reference value: 20.3%); assay type: functional; conditions: time 15 day
[29] = test system: Mus musculus; assay: Immunomodulatory effect in C57BL/6 mouse allografted mouse MC38 cells assessed as increase in tumor infiltrating lymphocytes by measuring increase in CD4+ T helper cells in tumor at 50 mg/kg, po treated 5 days after cell inoculation 19 th day by flow cytometry analysis (reference value: 2.57%); assay type: functional; conditions: time 15 day
[30] = Toxicity in C57BL/6 mouse allografted with mouse MC38 cells assessed as aspartate aminotransferase (AST) level in serum at 50 mg/kg, po treated 5 days after cell inoculation 19 th day; assay type: organism-based; conditions: in vivo, 360 h, time 15 day
[31] = Acute toxicity in C57 mouse assessed as body weight change; conditions: in vivo
[32] = test system: B16-F10 (Mus musculus); assay: Antiproliferative activity against mouse B16-F10 cells measured after 48 hrs incubation by MTT assay relative to control; conditions: B16-F10, 48 h
[33] = test system: B16-F10; assay: Antiproliferative activity against mouse B16-F10 cells at 1 uM measured after 48 hrs incubation by MTT assay relative to control

Q: With CCCNNC(=O)c1ccc(CNC(=O)c2cnc(-c3ccc4occc4c3)[nH]2)cc1 as the molecule, how does the IC50 [1] read?
A: 3980 nM

Q: What about the IC50 [2] of the same molecule?
A: 53 nM

Q: And the IC50 [3]?
A: > 10000 nM

Q: What about the IC50 [4] of the same molecule?
A: 330 nM

Q: What about the IC50 [5] of the same molecule?
A: 1900 nM

Q: What about the IC50 [6] of the same molecule?
A: 1800 nM

Q: And the IC50 [7]?
A: 100 nM

Q: What about the Activity [8] of the same molecule?
A: 11.97%

Q: And the Activity [9]?
A: 35%

Q: And the viability at 2 µM [10]?
A: 37.9%

Q: And the Activity [11]?
A: 28.73%

Q: And the viability at 4 µM [12]?
A: 18.2%

Q: And the Activity [13]?
A: 2.1%

Q: And the Activity [14]?
A: 60.9%

Q: What about the Activity [15] of the same molecule?
A: 2.85%

Q: And the Activity [16]?
A: Active

Q: What about the Activity [17] of the same molecule?
A: Dose-dependent-effect

Q: What about the Activity [18] of the same molecule?
A: Dose-dependent-effect

Q: And the Activity [19]?
A: 91.43%

Q: What about the Activity [20] of the same molecule?
A: 27.53%

Q: And the Activity [21]?
A: Active

Q: And the Activity [22]?
A: inactive

Q: What about the Activity [23] of the same molecule?
A: Dose-dependent-effect

Q: And the Tmax [24]?
A: 4.8 min

Q: What about the Cmax [25] of the same molecule?
A: 1210 ng/mL

Q: What about the MRT last at 12 h [26] of the same molecule?
A: 4.2 h

Q: What about the Cmax [27] of the same molecule?
A: 347 ng/mL

Q: What about the Activity [28] of the same molecule?
A: 31.6%

Q: What about the Activity [29] of the same molecule?
A: 1.72%

Q: And the Activity [30]?
A: Non-toxic

Q: What about the LD50 [31] of the same molecule?
A: > 200 mg/kg

Q: What about the IC50 [32] of the same molecule?
A: 2690 nM

Q: What about the Activity [33] of the same molecule?
A: 54.57%

Q: Which IC50 [1] does the source give for CCCNNC(=O)c1ccc(CNC(=O)c2cnc(-c3cccc4ccccc34)[nH]2)cc1 here?
A: 2030 nM

Q: What about the IC50 [2] of the same molecule?
A: 61 nM

Q: What about the IC50 [3] of the same molecule?
A: > 10000 nM

Q: And the IC50 [4]?
A: 370 nM

Q: And the IC50 [5]?
A: 2160 nM

Q: And the IC50 [6]?
A: 2300 nM

Q: And the IC50 [7]?
A: 230 nM

Q: And the Activity [8]?
A: 15.8%

Q: And the Activity [9]?
A: 30.57%

Q: And the viability at 2 µM [10]?
A: 31.3%

Q: What about the Activity [11] of the same molecule?
A: 41.1%

Q: And the viability at 4 µM [12]?
A: 28.3%

Q: And the Activity [13]?
A: 0.92%

Q: What about the Activity [14] of the same molecule?
A: 46.63%

Q: What about the Activity [15] of the same molecule?
A: 8.29%

Q: What about the Activity [16] of the same molecule?
A: Active

Q: What about the Activity [17] of the same molecule?
A: Dose-dependent-effect

Q: What about the Activity [21] of the same molecule?
A: Active

Q: What about the Activity [22] of the same molecule?
A: inactive

Q: And the Activity [23]?
A: Dose-dependent-effect

Q: What about the IC50 [32] of the same molecule?
A: 2470 nM

Q: What about the Activity [33] of the same molecule?
A: 55.07%
